Measurements published in US10681909B2, “Herbicidal triazoles” (FMC Corporation, priority 2014, dated 2020).

Assays:
Test in all cases: Test E preemergence
foxtail, green = assay type: in vivo, Setaria viridis; conditions: scale 0 to 100
From the text: (§1) Seeds of plant species selected from corn (Zea mays), soybean (Glycine max), lambsquarters (Chenopodium album), poinsettia, wild (wild poinsettia, Euphorbia heterophylla), pigweed, palmer (palmer pigweed, Amaranthus palmeri), waterhemp (common waterhemp, Amaranthus rudis), surinam grass (Brachiaria decumbens), crabgrass, large (large crabgrass, Digitaria sanguinalis), crabgrass, Brazilian (Brazilian crabgrass, Digitaria horizontalis), panicum, fall (fall panicum, Panicum dichotomiflorum), foxtail, giant (giant foxtail, Setaria faberii), foxtail, green (green foxtail, Setaria viridis), goosegrass (Eleusine indica), johnsongrass (Sorghum halepense), ragweed (common ragweed, Ambrosia elatior), barnyardgrass (Echinochloa crus-galli), sandbur (southern sandbur, Cenchrus echinatus), arrowleaf sida (Sida rhombifolia), ryegrass, Italian (Italian ryegrass, Lolium multiflorum), dayflower, VA (Virginia dayflower, Commelina virginica), field bindweed (Convolvulus arvensis), cocklebur (common cocklebur, Xanthium strumarium), morningglory (Ipomoea coccinea), nightshade (eastern black nightshade, Solanum ptycanthum), kochia (Kochia scoparia), nutsedge, yellow (yellow nutsedge, Cyperus esculentus), smartweed (ladysthumb smartweed, Polygonum persicaria), velvetleaf (Abutilon theophrasti), horseweed (Conyza canadensis), and beggarticks (hairy beggarticks, Bidens pilosa), were planted into a silt loam soil and treated preemergence with test chemicals formulated in a non-phytotoxic solvent mixture which included a surfactant.
(§2) At the same time, plants from these crop and weed species and also waterhemp_RES1, (ALS & Triazine resistant common waterhemp, Amaranthus rudis), and waterhemp_RES2, (ALS & HPPD resistant common waterhemp, Amaranthus rudis) were planted in pots containing Sunshine Redi-Earth® planting medium comprising spaghnum peat moss, vermiculite, starter nutrients and dolomitic limestone were treated with postemergence applications of test chemicals formulated in the same manner. Plants ranged in height from 2 to 18 cm for postemergence treatments (1- to 4-leaf stage). Treated plants and controls were maintained in a greenhouse for 14 to 21 d, after which time all species were compared to controls and visually evaluated. Plant response ratings, summarized in Table E, are based on a scale of 0 to 100 where 0 is no effect and 100 is complete control. A dash (-) response means no test result.

crabgrass, Brazilian = assay type: in vivo, Digitaria horizontalis; conditions: Brazil, scale 0 to 100
From the text: as §1, §2

sandbur = assay type: in vivo, Cenchrus echinatus; conditions: scale 0 to 100
From the text: as §1, §2

surinam grass = assay type: in vivo, Brachiaria decumbens; conditions: scale 0 to 100
From the text: as §1, §2

barnyardgrass = assay type: in vivo, Echinochloa crus-galli; conditions: scale 0 to 100
From the text: as §1, §2

panicum, fall = assay type: in vivo, Panicum dichotomiflorum; conditions: scale 0 to 100
From the text: as §1, §2

nightshade = assay type: in vivo, Solanum ptycanthum; conditions: scale 0 to 100
From the text: as §1, §2

lambsquarters = assay type: in vivo, Chenopodium album; conditions: scale 0 to 100
From the text: as §1, §2

soybean = assay type: in vivo, Glycine max; conditions: scale 0 to 100
From the text: as §1, §2

beggarticks = assay type: in vivo, Bidens pilosa; conditions: scale 0 to 100
From the text: as §1, §2

poinsettia, wild = assay type: in vivo, Euphorbia heterophylla; conditions: scale 0 to 100
From the text: as §1, §2

morningglory = assay type: in vivo, Ipomoea coccinea; conditions: scale 0 to 100
From the text: as §1, §2

ryegrass, Italian = assay type: in vivo, Lolium multiflorum; conditions: scale 0 to 100
From the text: as §1, §2

velvetleaf = assay type: in vivo, Abutilon theophrasti; conditions: scale 0 to 100
From the text: as §1, §2

goosegrass = assay type: in vivo, Eleusine indica; conditions: scale 0 to 100
From the text: as §1, §2

foxtail, giant = assay type: in vivo, Setaria faberii; conditions: scale 0 to 100
From the text: as §1, §2

Measured: Plant response rating

CCCc1nc(-c2ccc(F)cc2)nn1Cc1ccnc(C(F)(F)F)c1 [Compound 6, 4-[[3-(4-fluorophenyl)-5-propyl-1H-1,2,4-triazol-1-yl]methyl]-2-(trifluoromethyl)pyridine]
10: sandbur; 16 g ai/ha | barnyardgrass; 16 g ai/ha | soybean; 31 g ai/ha | morningglory; 31 g ai/ha | morningglory; 62 g ai/ha | ryegrass, Italian; 16 g ai/ha
30: poinsettia, wild; 31 g ai/ha | morningglory; 125 g ai/ha | velvetleaf; 31 g ai/ha
20: surinam grass; 16 g ai/ha | panicum, fall; 31 g ai/ha | beggarticks; 125 g ai/ha
35: panicum, fall; 62 g ai/ha
0: soybean; 16 g ai/ha | beggarticks; 16 g ai/ha | beggarticks; 31 g ai/ha | beggarticks; 62 g ai/ha | velvetleaf; 16 g ai/ha
50: sandbur; 62 g ai/ha | surinam grass; 125 g ai/ha | surinam grass; 250 g ai/ha | barnyardgrass; 62 g ai/ha | soybean; 125 g ai/ha | poinsettia, wild; 62 g ai/ha | poinsettia, wild; 125 g ai/ha | ryegrass, Italian; 62 g ai/ha | velvetleaf; 125 g ai/ha | goosegrass; 31 g ai/ha | goosegrass; 62 g ai/ha | foxtail, giant; 16 g ai/ha
80: foxtail, green; 125 g ai/ha | crabgrass, Brazilian; 31 g ai/ha | sandbur; 250 g ai/ha | ryegrass, Italian; 250 g ai/ha
100: foxtail, green; 250 g ai/ha | crabgrass, Brazilian; 62 g ai/ha | crabgrass, Brazilian; 125 g ai/ha | crabgrass, Brazilian; 250 g ai/ha | panicum, fall; 250 g ai/ha | nightshade; 125 g ai/ha | nightshade; 250 g ai/ha | lambsquarters; 62 g ai/ha | lambsquarters; 125 g ai/ha | lambsquarters; 250 g ai/ha | goosegrass; 250 g ai/ha | foxtail, giant; 250 g ai/ha
40: sandbur; 31 g ai/ha | surinam grass; 31 g ai/ha | surinam grass; 62 g ai/ha | barnyardgrass; 31 g ai/ha | soybean; 62 g ai/ha | ryegrass, Italian; 31 g ai/ha | velvetleaf; 62 g ai/ha
60: barnyardgrass; 125 g ai/ha | foxtail, giant; 62 g ai/ha
95: panicum, fall; 125 g ai/ha | poinsettia, wild; 250 g ai/ha | foxtail, giant; 125 g ai/ha
15: nightshade; 16 g ai/ha | poinsettia, wild; 16 g ai/ha | goosegrass; 16 g ai/ha
75: crabgrass, Brazilian; 16 g ai/ha | barnyardgrass; 250 g ai/ha | goosegrass; 125 g ai/ha
70: foxtail, green; 62 g ai/ha | sandbur; 125 g ai/ha | nightshade; 31 g ai/ha | lambsquarters; 31 g ai/ha | soybean; 250 g ai/ha | beggarticks; 250 g ai/ha | ryegrass, Italian; 125 g ai/ha | velvetleaf; 250 g ai/ha
90: nightshade; 62 g ai/ha

CCOc1nc(-c2ccc(F)cc2)nn1Cc1ccnc(C(F)(F)F)c1 [Compound 8, 4-[[5-ethoxy-3-(4-fluorophenyl)-1H-1,2,4-triazol-1-yl]methyl]-2-(trifluoromethyl)pyridine]
95: barnyardgrass; 125 g ai/ha | poinsettia, wild; 125 g ai/ha
60: sandbur; 62 g ai/ha
75: surinam grass; 125 g ai/ha | barnyardgrass; 62 g ai/ha
20: beggarticks; 62 g ai/ha | beggarticks; 125 g ai/ha
50: surinam grass; 62 g ai/ha | soybean; 62 g ai/ha | soybean; 125 g ai/ha | velvetleaf; 62 g ai/ha
70: poinsettia, wild; 62 g ai/ha | morningglory; 62 g ai/ha
65: ryegrass, Italian; 62 g ai/ha
100: foxtail, green; 62 g ai/ha | foxtail, green; 125 g ai/ha | crabgrass, Brazilian; 62 g ai/ha | crabgrass, Brazilian; 125 g ai/ha | panicum, fall; 62 g ai/ha | panicum, fall; 125 g ai/ha | nightshade; 125 g ai/ha | lambsquarters; 62 g ai/ha | lambsquarters; 125 g ai/ha | morningglory; 125 g ai/ha | ryegrass, Italian; 125 g ai/ha | goosegrass; 62 g ai/ha | goosegrass; 125 g ai/ha | foxtail, giant; 62 g ai/ha | foxtail, giant; 125 g ai/ha
98: sandbur; 125 g ai/ha | nightshade; 62 g ai/ha | velvetleaf; 125 g ai/ha
